The record followed here is BindingDB's records for patent US20250257051 (1910 Genetics, 2025).

Each structure is given as a SMILES string.

T1 sequence (P29597 556-888): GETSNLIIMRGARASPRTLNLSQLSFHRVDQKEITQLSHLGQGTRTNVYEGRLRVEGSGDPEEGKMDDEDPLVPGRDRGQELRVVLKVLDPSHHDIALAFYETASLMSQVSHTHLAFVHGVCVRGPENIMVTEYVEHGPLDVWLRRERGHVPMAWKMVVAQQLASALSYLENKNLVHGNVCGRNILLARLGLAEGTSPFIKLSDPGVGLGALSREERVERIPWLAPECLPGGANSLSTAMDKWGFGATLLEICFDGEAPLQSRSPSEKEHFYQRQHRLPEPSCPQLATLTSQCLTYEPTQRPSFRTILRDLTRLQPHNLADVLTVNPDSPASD

The experiment has as its target T1, Non-receptor tyrosine-protein kinase TYK2 [556-888] (Homo sapiens, UniProt P29597).
T1 construct: 556-888
Kind of experiment: TYK2 JH2 Domain Binding Assay. As for the experimental part:
Binding constants for compounds disclosed herein against the JH2 domain are determined by the following protocol for a KINOMEscan assay (DiscoveRx). A fusion protein of a partial length construct of human TYK2 (JH2domain-pseudokinase) (amino acids G556 to D888 based on reference sequence NP 003322.3) and the DNA binding domain of NFkB is expressed in transiently transfected HEK293 cells. From these HEK 293 cells, extracts are prepared in M-PER extraction buffer (Pierce) in the presence of Protease Inhibitor Cocktail Complete (Roche) and Phosphatase Inhibitor Cocktail Set II (Merck) per manufacturers' instructions. The TYK2 (JH2domain-pseudokinase) fusion protein is labeled with a chimeric double-stranded DNA tag containing the NFkB binding site (5′-GGGAATTCCC-3′) fused to an amplicon for qPCR readout, which is added directly to the expression extract (the final concentration of DNA-tag in the binding reaction is 0.1 nM).
`COc1ccccc1Nc1nc(N2CCCNCC2)ncc1C(N)=O` [US20250257051, Compound 40] had a Kd of 3.3 µM.

On to `CNC(=O)c1cnc(N2CCNCC2C)nc1Nc1ccc(C2CC2)nc1` (centres undefined) [US20250257051, Compound 14], for which the affinity, expressed as Kd, was 19 µM.

Turning to `CC(C)(C)OC(=O)N1CCCN(c2ncc(C(N)=O)c(Nc3ccccc3S(C)(=O)=O)n2)CC1` [US20250257051, Compound 65], the affinity, expressed as Kd, was 2.9 µM.

`CNC(=O)c1cnc(N2CCCC2)nc1Nc1ccc(C2CC2)nc1` [US20250257051, Compound 10] came in with a Kd of 0.37 µM. This Kd is about 7.8-fold lower than that of the molecule before.

The term Kd denotes a measure of binding affinity in units of concentration. Higher therefore signals weaker binding.
